Measured values reported in PubChem BioAssay (NCI).
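Briefly, cells in 96-well plates were exposed to five compound concentrations for 48 h, and endpoints were estimated by linear interpolation. At the GI50, growth is halved. TGI: concentration producing complete growth inhibition.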

Assays:
Test in all cases: NCI tumour cell line growth inhibition, 48 h
[1] = system: LXFL 529 NSCLC
[2] = system: RPMI-8226 leukemia
[3] = system: A498 renal
[4] = system: UO-31 renal
[5] = system: EKVX NSCLC
[6] = system: 786-0 renal
[7] = system: MOLT-4 leukemia
[8] = system: KM12 colon
[9] = system: OVCAR-3 ovarian
[10] = system: UACC-62 melanoma
[11] = system: SNB-78 CNS
[12] = system: KM20L2 colon
[13] = system: SN12C renal
[14] = system: SF-539 CNS
[15] = system: IGROV1 ovarian
[16] = system: HCC-2998 colon
[17] = system: OVCAR-5 ovarian
[18] = system: M14 melanoma
[19] = system: HL-60(TB) leukemia
[20] = system: HOP-18 NSCLC
[21] = system: HT29 colon
[22] = system: DMS 114 small cell lung
[23] = system: HOP-92 NSCLC
[24] = system: RXF-631 renal
[25] = system: ACHN renal
[26] = system: SF-295 CNS
[27] = system: SF-268 CNS
[28] = system: NCI-H23 lung
[29] = system: NCI-H522 lung
[30] = system: U251 CNS
[31] = system: RXF 393 renal
[32] = system: LOX IMVI melanoma
[33] = system: SNB-75 CNS
[34] = system: NCI-H460 lung
[35] = system: OVCAR-4 ovarian
[36] = system: SK-MEL-28 melanoma
[37] = system: COLO 205 colon
[38] = system: DLD-1 colon
[39] = system: HCT-116 colon
[40] = system: TK-10 renal
[41] = system: M19-MEL melanoma
[42] = system: SK-OV-3 ovarian
[43] = system: MALME-3M melanoma
[44] = system: OVCAR-8 ovarian
[45] = system: SNB-19 CNS
[46] = system: K-562 leukemia
[47] = system: SK-MEL-2 melanoma
[48] = system: UACC-257 melanoma
[49] = system: NCI-H226 lung
[50] = system: HCT-15 colon
[51] = system: CAKI-1 renal
[52] = system: HOP-62 NSCLC
[53] = system: DMS 273 small cell lung
[54] = system: XF 498 CNS
[55] = system: CCRF-CEM leukemia
[56] = system: SR leukemia
[57] = system: A549 NSCLC
[58] = system: SW-620 colon
[59] = system: SK-MEL-5 melanoma

Compound: O=[N+]([O-])c1ccc(C=NC23CC4CC(CC(C4)C2)C3)cc1
- TGI [1]: > 100 µM
- TGI [2]: > 100 µM
- TGI [3]: > 100 µM
- TGI [4]: > 100 µM
- TGI [5]: > 100 µM
- TGI [6]: > 100 µM
- TGI [7]: > 100 µM
- TGI [8]: > 100 µM
- TGI [9]: > 100 µM
- TGI [10]: > 100 µM
- TGI [11]: > 100 µM
- TGI [12]: > 100 µM
- TGI [13]: > 100 µM
- TGI [14]: > 100 µM
- TGI [15]: > 100 µM
- TGI [16]: > 100 µM
- TGI [17]: > 100 µM
- TGI [18]: > 100 µM
- TGI [19]: > 100 µM
- TGI [20]: > 100 µM
- TGI [21]: > 100 µM
- TGI [22]: > 100 µM
- TGI [23]: > 100 µM
- TGI [24]: > 100 µM
- TGI [25]: > 100 µM
- TGI [26]: > 100 µM
- TGI [27]: > 100 µM
- TGI [28]: > 100 µM
- TGI [29]: > 100 µM
- TGI [30]: > 100 µM
- TGI [31]: > 100 µM
- TGI [32]: > 100 µM
- TGI [33]: > 100 µM
- TGI [34]: > 100 µM
- TGI [35]: > 100 µM
- TGI [36]: > 100 µM
- TGI [37]: > 100 µM
- TGI [38]: > 100 µM
- TGI [39]: > 100 µM
- TGI [40]: > 100 µM
- TGI [41]: > 100 µM
- TGI [42]: > 100 µM
- TGI [43]: > 100 µM
- TGI [44]: > 100 µM
- TGI [45]: > 100 µM
- TGI [46]: > 100 µM
- TGI [47]: > 100 µM
- TGI [48]: > 100 µM
- TGI [49]: > 100 µM
- TGI [50]: > 100 µM
- TGI [51]: > 100 µM
- TGI [52]: > 100 µM
- TGI [53]: > 100 µM
- TGI [54]: > 100 µM
- TGI [55]: > 100 µM

Compound: OCCN1CCN(CC/C=C2/c3ccccc3Sc3ccc(Cl)cc32)CC1
- TGI [1]: 17.9 µM
- TGI [2]: 31.2 µM
- TGI [3]: 28.1 µM
- TGI [4]: 27.3 µM
- TGI [5]: 31.3 µM
- GI50 [6]: 13.2 µM
- TGI [6]: 26.7 µM
- TGI [7]: 26.8 µM
- TGI [8]: 23.2 µM
- TGI [9]: 27.9 µM
- TGI [10]: 6.78 µM
- TGI [11]: 30.2 µM
- TGI [12]: 5.4 µM
- TGI [13]: 26 µM
- TGI [14]: 25.7 µM
- TGI [15]: 28.6 µM
- TGI [16]: 23.5 µM
- TGI [17]: 30.9 µM
- TGI [18]: 6.24 µM
- TGI [19]: 16 µM
- TGI [20]: 24 µM
- TGI [21]: 6.9 µM
- TGI [22]: 30.5 µM
- TGI [23]: 20.9 µM
- TGI [25]: 29.7 µM
- TGI [26]: 32.6 µM
- TGI [56]: 34.3 µM
- TGI [27]: 28.3 µM
- TGI [28]: 29.2 µM
- TGI [57]: 29.9 µM
- TGI [58]: 24.6 µM
- TGI [29]: 30.1 µM
- TGI [30]: 25.6 µM
- TGI [31]: 26.5 µM
- TGI [32]: 21.8 µM
- TGI [33]: 12.3 µM
- TGI [34]: 16.3 µM
- TGI [35]: 31.5 µM
- TGI [36]: 3.38 µM
- TGI [37]: 23.3 µM
- TGI [38]: 26.4 µM
- TGI [39]: 21.7 µM
- TGI [40]: 28.8 µM
- TGI [41]: 4.09 µM
- TGI [42]: 29.3 µM
- TGI [43]: 13.1 µM
- GI50 [44]: 15.2 µM
- TGI [44]: 29.1 µM
- TGI [45]: 34.9 µM
- TGI [46]: 8.65 µM
- TGI [47]: 28.3 µM
- TGI [48]: 7.16 µM
- TGI [49]: 28.2 µM
- TGI [50]: 26.2 µM
- TGI [59]: 16.5 µM
- TGI [51]: 24.4 µM
- TGI [52]: 29.7 µM
- TGI [53]: 18.9 µM
- TGI [54]: 25.4 µM
- TGI [55]: 23.6 µM

Compound: O=C1NCCS(=O)(=O)N2CCC[C@@H]12
- TGI [1]: > 100 µM
- TGI [2]: > 100 µM
- TGI [3]: > 100 µM
- TGI [4]: > 100 µM
- TGI [5]: > 100 µM
- TGI [6]: > 100 µM
- TGI [7]: > 100 µM
- TGI [8]: > 100 µM
- TGI [9]: > 100 µM
- TGI [10]: > 100 µM
- TGI [11]: > 100 µM
- TGI [12]: > 100 µM
- TGI [13]: > 100 µM
- TGI [14]: > 100 µM
- TGI [15]: > 100 µM
- TGI [16]: > 100 µM
- TGI [17]: > 100 µM
- TGI [18]: > 100 µM
- TGI [19]: > 100 µM
- TGI [20]: > 100 µM
- TGI [21]: > 100 µM
- TGI [22]: > 100 µM
- TGI [23]: > 100 µM
- TGI [24]: > 100 µM
- TGI [25]: > 100 µM
- TGI [26]: > 100 µM
- TGI [56]: > 100 µM
- TGI [27]: > 100 µM
- TGI [28]: > 100 µM
- TGI [57]: > 100 µM
- TGI [58]: > 100 µM
- TGI [29]: > 100 µM
- TGI [30]: > 100 µM
- TGI [31]: > 100 µM
- TGI [32]: > 100 µM
- TGI [33]: > 100 µM
- TGI [34]: > 100 µM
- TGI [35]: > 100 µM
- TGI [36]: > 100 µM
- TGI [37]: > 100 µM
- TGI [38]: > 100 µM
- TGI [39]: > 100 µM
- TGI [40]: > 100 µM
- TGI [41]: > 100 µM
- TGI [42]: > 100 µM
- TGI [43]: > 100 µM
- TGI [44]: > 100 µM
- TGI [45]: > 100 µM
- TGI [46]: > 100 µM
- TGI [48]: > 100 µM
- TGI [49]: > 100 µM
- TGI [50]: > 100 µM
- TGI [59]: > 100 µM
- TGI [51]: > 100 µM
- TGI [52]: > 100 µM
- TGI [55]: > 100 µM

Compound: COc1ccc2c(c1)OC[C@@H]1c3cc(O)c(OCc4ccccc4)cc3O[C@H]21
- TGI [1]: 74.9 µM
- TGI [2]: 49 µM
- TGI [3]: > 100 µM
- TGI [4]: 75.9 µM
- TGI [5]: 60.1 µM
- TGI [6]: > 100 µM
- TGI [7]: > 100 µM
- TGI [8]: > 100 µM
- TGI [9]: > 100 µM
- TGI [10]: > 100 µM
- TGI [11]: 92.3 µM
- TGI [12]: 97.2 µM
- TGI [14]: > 100 µM
- TGI [15]: > 100 µM
- TGI [16]: > 100 µM
- TGI [17]: > 100 µM
- TGI [18]: 82.6 µM
- TGI [19]: 52 µM
- TGI [20]: > 100 µM
- TGI [21]: > 100 µM
- TGI [22]: 82.6 µM
- TGI [23]: 61.7 µM
- TGI [24]: > 100 µM
- TGI [25]: > 100 µM
- TGI [26]: > 100 µM
- TGI [27]: > 100 µM
- TGI [28]: 67.9 µM
- TGI [57]: 97.1 µM
- TGI [58]: 96.2 µM
- TGI [29]: 51.9 µM
- TGI [30]: 68.4 µM
- TGI [31]: 93.2 µM
- TGI [32]: > 100 µM
- TGI [33]: 65.4 µM
- TGI [34]: 35.7 µM
- TGI [35]: 60.3 µM
- TGI [36]: > 100 µM
- TGI [37]: 74.1 µM
- TGI [38]: > 100 µM
- TGI [39]: > 100 µM
- TGI [40]: 96.4 µM
- TGI [41]: 95.5 µM
- TGI [42]: > 100 µM
- TGI [43]: 85.7 µM
- TGI [44]: > 100 µM
- TGI [45]: > 100 µM
- TGI [46]: > 100 µM
- TGI [47]: 60.8 µM
- TGI [48]: 51.4 µM
- TGI [49]: 95.7 µM
- TGI [50]: > 100 µM
- TGI [59]: 26.5 µM
- TGI [51]: 84.8 µM
- TGI [52]: > 100 µM
- TGI [53]: > 100 µM
- TGI [54]: 68.4 µM
- TGI [55]: > 100 µM
